Laboratory results reported in patent US20150238490A1 (Pharmacyclics, Inc., priority 2014, published 2015).
Entries after “also recorded” stand apart in the source; their conditions may differ.

Experiments:
CLL patients = conditions: plasma, previous studies; cited from earlier work
[1] = test system: DB cell line (GCB subtype DLBCL); assay: CCL3/CCL4 secretion by DLBCL cell line, supernatant ELISA; assay type: cell-based, human; conditions: 1 μM ibrutinib, supernatant after 24 h
Experimental: (§1) For BCR stimulation, culture medium was supplemented with 10 μg/mL anti-IgM (polyclonal goat F(ab′)2 fragments to human IgM, MP Biomedicals) for the indicated time periods.
(§2) All DLBCL cell lines were grown in RPMI 1640 medium (Hyclone) supplemented with glutamine, beta-mercaptoethanol, penicillin/streptomycin and 10% fetal bovine serum, except for OCI-Ly3 and OCI-Ly10, which were maintained in Iscove's modified Dulbecco's medium (Gibco) supplemented with beta-mercaptoethanol, penicillin/streptomycin and 20% heparinized human plasma. All cell lines were grown in a humidified 5% CO2 incubator at 37° C. DLBCL cell lines included TMD8, HBL-1, OCI-Ly10, OCI-Ly3, DB and OCI-Ly19.
(§3) Cell culture supernatant samples from DLBCL cell lines were used after 24 h for the measurement of CCL3 and CCL4 levels for quantification by ELISA using Quantikine Kits (R&D Systems). The absorbance was recorded by a microplate reader (ELx808, Bio-Tek Instruments), and data collection and analysis were performed using Gen5 software Version 1.08 (Bio-Tek Instruments).
(§4) Peripheral blood serum samples were obtained from the tissue bank of the Department of Lymphoma and Myeloma at MDACC or from the University of Nebraska Medical Center. All serum samples were aliquoted and stored at the time of initial referral to each institution. Serum and cell culture supernatant CCL3 and CCL4 levels were quantified by ELISA using Quantikine Kits (R&D Systems) and was conducted at MDACC (Sivina M, Hartmann E, Kipps T J, et al. “CCL3 (MIP-1alpha) plasma levels and the risk for disease progression in chronic lymphocytic leukemia.” Blood. 2011; 117(5):1662-1669.). The absorbance was recorded on a microplate reader (ELx808, Bio-Tek Instruments), and data collection and analysis were performed using Gen5 software Version 1.08 (Bio-Tek Instruments).

[2] = test system: HBL-1 cell line (ABC subtype DLBCL); assay: as above; assay type: cell-based, human; conditions: for mean supernatant concentration of CCL3: 24 h
Experimental: as §1, §2, §3, §4

[3] = test system: OCI-Ly10 cell line (ABC subtype DLBCL); assay: as above; assay type: cell-based, human; conditions: 1 μM ibrutinib, supernatant after 24 h
Experimental: as §1, §2, §3, §4

[4] = test system: OCI-Ly19 cell line (GCB subtype DLBCL); assay: as above; assay type: cell-based, human; conditions: 1 μM ibrutinib, supernatant after 24 h
Experimental: as §1, §2, §3, §4

[5] = test system: OCI-Ly3 cell line (ABC subtype DLBCL, CARD11 mutation); assay: as above; assay type: cell-based, human; conditions: 1 μM ibrutinib, supernatant after 24 h
Experimental: as §1, §2, §3, §4

[6] = test system: TMD8 cell line (ABC subtype DLBCL); assay: as above; assay type: cell-based, human
Experimental: as §1, §2, §3, §4

DLBCL patients = assay: Serum CCL3 and CCL4 pre- and post-treatment in patients with DLBCL; assay type: in vivo, human; conditions: in most patients
Source text: The study included 102 patients from MD Anderson Cancer Center (MDACC) with newly diagnosed DLBCL between January 2009 and February 2011 (MDA test cohort). In addition, a second set of 51 patients from MDACC with newly diagnosed DLBCL was included for validation analysis (MDA validation cohort). Nineteen patients with newly diagnosed DLBCL from the University of Nebraska were also included in the correlation analysis between serum CCL3/CCL4 levels and GCB vs. non-GCB subtype (Nebraska cohort). […] Demographics and other clinical parameters for both MDACC test and validation cohort were obtained at the time of initial referral to MDACC. DLBCL diagnosis was established by institutional pathologists according to the WHO classification. Immunophenotypic classification (GCB vs. non-GCB subtype) of DLBCL was determined by Hans criteria. […]
Peripheral blood serum samples were obtained from the tissue bank of the Department of Lymphoma and Myeloma at MDACC or from the University of Nebraska Medical Center. […] Serum and cell culture supernatant CCL3 and CCL4 levels were quantified by ELISA using Quantikine Kits (R&D Systems) and was conducted at MDACC (Sivina M, Hartmann E, Kipps T J, et al. “CCL3 (MIP-1alpha) plasma levels and the risk for disease progression in chronic lymphocytic leukemia.” Blood. 2011; 117(5):1662-1669.). […]

[7] = 1 μM ibrutinib, alone or with 10 μg/mL anti-IgM, supernatant after 24 h
[8] = ibrutinib titration (3.1-1000 nM) in combination with 10 μg αIgM

Row | SMILES | elevated CCL3 and CCL4 levels after pharmacologic inhibition of BCR signaling (CLL patients) | CCL3 level after ibrutinib treatment [1] | CCL4 level after ibrutinib treatment [1] | mean supernatant concentration of CCL3 ([2]; 1 μM ibrutinib alone (unstimulated cells), baseline 1705.5 pg/mL) | mean supernatant concentration of CCL3 ([2]; 1 μM ibrutinib in combination with 10 μg/mL anti-IgM) | CCL3 level after ibrutinib treatment [2, 7] | CCL4 level after ibrutinib treatment [2, 7] | ibrutinib concentration resulting in the lowest CCL3 level [2, 8] | ibrutinib concentration resulting in the lowest CCL4 level [2, 8] | CCL3 level after ibrutinib treatment [3] | CCL4 level after ibrutinib treatment [3] | CCL3 level after ibrutinib treatment [4] | CCL4 level after ibrutinib treatment [4] | CCL3 level after ibrutinib treatment [5] | CCL4 level after ibrutinib treatment [5] | CCL3 level after ibrutinib treatment [6, 7] | CCL4 level after ibrutinib treatment [6, 7] | CCL3 level after BCR stimulation, ibrutinib titration ([6]; 1000 nM ibrutinib with 10 μg αIgM, decreased level maintained at 500 nM and 100 nM) | CCL4 level after BCR stimulation, ibrutinib titration ([6]; 1000 nM ibrutinib with 10 μg αIgM, decreased level maintained at 500 nM, 100 nM and 50 nM) | high concentrations of serum CCL3 and CCL4 after therapy (DLBCL patients)
1 | CC[C@H](Nc1ncnc2[nH]cnc12)c1nc2cccc(F)c2c(=O)n1-c1ccccc1 [GS-1101/CAL-101/idelalisib] | rapidly normalize |  |  |  |  |  |  |  |  |  |  |  |  |  |  |  |  |  |  | 
2 | C=CC(=O)N1CCC[C@@H](n2nc(-c3ccc(Oc4ccccc4)cc3)c3c(N)ncnc32)C1 [ibrutinib, 1-((R)-3-(4-amino-3-(4-phenoxyphenyl)-1H-pyrazolo[3,4-d]pyrimidin-1-yl)piperidin-1-yl)prop-2-en-1-one] |  | did not respond; also recorded: unaffected | did not respond; also recorded: unaffected | 313.2 (±6.8) pg/mL | 2029.16 (±26.9) pg/mL | abrogated; also recorded: significantly decreased | abrogated; also recorded: significantly decreased | 500 nM | 500 nM | sensitive to inhibition; also recorded: significant decrease | sensitive to inhibition; also recorded: significant decrease | did not respond; also recorded: unaffected | did not respond; also recorded: unaffected | did not respond; also recorded: unaffected | did not respond; also recorded: unaffected | abrogated; also recorded: significantly decreased | abrogated; also recorded: significantly decreased | decreased | decreased | returned to low levels
